One assay has as its target T1, MRGPRC11 (Mus musculus, UniProt Q8CIP3).
T1 construct: expressed in transfected cells
T1 sequence (Q8CIP3 1-322): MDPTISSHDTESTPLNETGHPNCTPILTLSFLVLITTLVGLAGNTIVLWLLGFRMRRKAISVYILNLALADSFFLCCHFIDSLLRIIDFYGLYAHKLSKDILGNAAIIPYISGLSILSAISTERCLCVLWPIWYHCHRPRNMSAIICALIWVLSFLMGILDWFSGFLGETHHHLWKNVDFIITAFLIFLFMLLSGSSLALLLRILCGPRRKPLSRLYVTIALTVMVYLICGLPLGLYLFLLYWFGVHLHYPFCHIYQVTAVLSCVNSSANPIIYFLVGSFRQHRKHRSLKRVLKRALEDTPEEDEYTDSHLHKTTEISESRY
Description: Ca2+ imaging and concentration-Ca2+ response in HEK293 cells expressing MRGPRC11. Format: cell-based. The conditions noted are these: three replicates, Fig 2-N. The method, then: (§1) All cultured cells were maintained in DMEM supplemented with 10% FBS and 1% Penicillin/Streptomycin at 37°C, 5% CO2. All data included were generated from cells tested for mycoplasma and found to be negative. Cells were imaged in calcium imaging buffer (CIB; 10 mM HEPES, 1.2 mM NaHCO3, 130 mM NaCl, 3 mM KCl, 2.5 mM CaCl2, 0.6 mM MgCl2, 20 mM glucose, and 20 mM sucrose at pH 7.4 and 290–300 mOsm). To monitor changes in intracellular [Ca^2+] ([Ca^2+]i), cells were loaded with either Fura 2-AM (HEK293 cells) or Fluo 4-AM (DRG neurons and mast cells) for 30 min in the dark at 37°C in CIB just prior to imaging. With Fura 2-AM, emission at 510 nm was monitored from excitation at both 340 nm and 380 nm. With Fluo 4-AM, emission at 520 nm was monitored from excitation at 488 nm. Cells were identified as responding if the intracellular [Ca^2+] rose by either 50% compared to baseline or 50% compared to the [Ca^2+]i change assayed during addition of 50 mM KCl (neurons only). Damaged, detached, high-baseline, and motion-activated cells were excluded from analysis.
In initial screens, HEK293 cells stably expressing the murine G-protein alpha-subunit Gα15, a unique Gα protein that non-selectively couples a large variety of GPCRs to phospholipase C ^30, were plated on poly-D-lysine-coated coverslips and transiently transfected with constructs encoding the MRGRPR of interest. 12–24 hr later, cells were loaded with the Fura 2-AM. Unless otherwise specified, compounds were perfused into the imaging chamber for approximately thirty seconds after a baseline period was established. Response was then monitored at 5 s intervals for an additional 60 s.
HEK293 cells stably expressing either MRGPRA1, MRGPRX4, and MRGRPC11 were seeded in poly-D-lysine-coated 96-well plates at 10,000 cells/well. Cells were loaded with Fura 2–AM, washed twice, and maintained in CIB. Haem metabolites were freshly dissolved in DMSO in dim light and then diluted into a buffer comprised of 20 mM Tris and 150 mM NaCl at pH 8.8. Potential changes in pH were evaluated prior to each experiment. EC50 values were determined from dose-responses performed in triplicate, repeated 2–4 times. To determine potential antagonism by QWF against bilirubin, cells were treated with varying doses of QWF for 1 min in CIB prior to application of agonist.
HEK293 stable cell lines expressing GFP-tagged MRGPRA3, MRGPRC11, MRGPRD, MRGPRX1, and MRGPRX2 were generated in previously described reports ([Liu et al., 2009]; [Liu et al., 2012]; [McNeil et al., 2015]). Briefly, plasmids containing the receptor of interest were transfected into HEK cells using Lipofectamine 3000. After 3 days, cells were then selected using 0.5 mg/mL G418. After 3 weeks, monoclonal colonies were established and each the highest expressing clones were identified. For this study, Mrgpra1 and MRGPRX4 were inserted into pEGFP-N1 and transfected into HEK293 cells. MRGPR-positive cells were selected using 0.5 mg/mL G418 for three weeks, after which GFP-positive cells were sorted by FACS and monoclonally expanded. Two lines expressing similar levels of MRGPRA1 and MRGPRX4, as measured by GFP fluorescence, were selected for study.

Another assay has as its system Mrgprs. Description: Ca2+ imaging screen of HEK293 cells transiently expressing other Mrgprs (MRGPRA3, MRGPRD, MRGPRX1, MRGPRX2 and others). Format: cell-based. As to conditions: 50 µM bilirubin, 12 Mrgprs screened. How it is done:
as §1, with “Damaged, detached, high-baseline, and motion-activated cells were excluded from analysis.” left out
In initial screens, HEK293 cells stably expressing the murine G-protein alpha-subunit Gα15, a unique Gα protein that non-selectively couples a large variety of GPCRs to phospholipase C ^30, were plated on poly-D-lysine-coated coverslips and transiently transfected with constructs encoding the MRGRPR of interest. […] Response was then monitored at 5 s intervals for an additional 60 s.

For assay [1], the system named is Mrgpr-cluster KO DRG neurons. Description: Ca2+ imaging of Mrgpr-cluster KO DRG neurons infected with lentivirus encoding Mrgpra1, MRGPRX4 or MRGPRX3. Format: cell-based, mouse. As to conditions: 50 µM bilirubin (Fig 3J). The method, then: DRGs were incubated with Fluo-4 AM 24 hr after dissociation (native genotype) or 48 hr after dissociation (virally transduced). Unless otherwise noted, cells were imaged for 20 seconds to establish a baseline before compounds were added. After 30 s, a 2 min wash was applied before addition of another substances. At the end of every imaging trial, 50 mM KCl was added as a positive control. […] For ruthenium red inhibitor experiments, neurons were incubated with 10 µM ruthenium red for 5 min prior to imaging. Percentage activated was determined as earlier described.
DRG neurons from all spinal levels were collected in cold DH10 media (90% Dulbecco’s modified Eagle’s medium (DMEM)/F-12, 10% FBS, penicillin (100 U/mL), and streptomycin (100 μg/mL)). DRGs were digested with a dispase (5 mg/ml)/collagenase type I (1 mg/ml) enzyme mixture at 37°C for 45 min. After trituration, cells were spun at 300 g and re-suspended in DH10 before being plated on glass coverslips coated with poly-D-lysine (0.5 mg/ml) and laminin (10 μg/ml, Invitrogen). DRGs were cultured with DH10 supplemented with 50 ng/mL NGF at 37°C.
Lentiviruses encoding various cDNA for MRGPRs were generated using psPAX2 and pMD2.G. Virus was pelleted by centrifugation at 100,000 g for 4 hr, gently washed with twice with DH10 medium, and suspended in DH10. One day after DRG isolation and culture, DRGs were infected with lentivirus […]. The following morning, medium was completely replaced with fresh DH10 supplemented with 50 ng/mL NGF. 24 hr after infection, cells were processed for calcium imaging.

Regarding `C=CC1=C(C)/C(=C/c2[nH]c(Cc3[nH]c(/C=C4\NC(=O)C(C)=C4C=C)c(C)c3CCC(=O)O)c(CCC(=O)O)c2C)NC1=O` [bilirubin, bilirubin IXα], the “Ca2+ response (concentration-Ca2+ response curve), replicate values” at MRGPRC11 ([Ligand] 3.90625e-6 M), on MRGPRC11 ([Ligand] 7.8125e-6 M), on MRGPRC11 ([Ligand] 1.5625e-5 M), on MRGPRC11 ([Ligand] 3.125e-5 M), on MRGPRC11 ([Ligand] 6.25e-5 M) and on MRGPRC11 ([Ligand] 0.000125 M) was 0 in each case. The “Ca2+ response (concentration-Ca2+ response curve), replicate values” on MRGPRC11 ([Ligand] 0.00025 M) and on MRGPRC11 ([Ligand] 0.0005 M) was 0 in each case. Moreover, the “Calcium response of other Mrgprs to bilirubin” value in the assay on Mrgprs is recorded as “No other Mrgpr among the 12 that we screened responded”. The Percent activated neurons in assay [1] (MRGPRX4-infected Mrgpr-cluster KO DRG) is 32%; in assay [1] (Mrgpra1-infected Mrgpr-cluster KO DRG) it was 14%; in assay [1] (uninfected Mrgpr-cluster KO DRG), 1.3%.
